Where a name gives a salt, the structure may show the parent alone. Read-outs that look alike come from different tables or passages of the source.
Tests used:
BIR2 domain of XIAP = BIR2 domain of XIAP (Homo sapiens (Human), UniProt P98170, C202A/C213G); experiment: TR-FRET assay for BIR2: inhibition of binding of XIAP BIR2 domain to Peptide A (SMAC-derived peptide)
BIR3 domain of XIAP = BIR3 domain of XIAP (Homo sapiens (Human), UniProt P98170); experiment: TR-FRET assay for BIR3: inhibition of binding of XIAP BIR3 domain to Peptide A (SMAC-derived peptide)
BIR3 domain of XIAP, sequence (P98170 241-356): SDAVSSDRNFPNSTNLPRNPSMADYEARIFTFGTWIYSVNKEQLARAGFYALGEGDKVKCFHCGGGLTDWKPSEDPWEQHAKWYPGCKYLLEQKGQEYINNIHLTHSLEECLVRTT

[1] = 6x Histidine-tagged BIR2 domain (amino acids 124-240 of XIAP), 10 nM, 20 nM peptide AVPIAQKSEK-(ε-biotin)-OH, TR-FRET
[2] = 6x Histidine-tagged BIR3 domain (amino acids 241-356 of XIAP), 10 nM, 20 nM peptide AVPIAQKSEK-(ε-biotin)-OH, TR-FRET

BIR2 domain of XIAP, sequence (P98170 124-240 C202A/C213G): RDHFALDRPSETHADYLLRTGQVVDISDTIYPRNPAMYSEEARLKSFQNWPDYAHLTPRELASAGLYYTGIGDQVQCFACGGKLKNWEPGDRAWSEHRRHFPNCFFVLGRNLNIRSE

Row | IC50 (BIR2 domain of XIAP; [1]) [nM] | IC50 (BIR3 domain of XIAP; [2]) [nM] | Structure (SMILES) | IC50 (BIR2 domain of XIAP) [nM] | IC50 (BIR3 domain of XIAP) [nM]
1 | – | – | CCN[C@@H](C)C(=O)N[C@@H]1C(=O)N(Cc2c(C)ccc3ccccc23)c2ccc(C#N)cc2N(C(=O)CS(C)(=O)=O)[C@H]1C [Example 28, (S)-N-((3S,4S)-7-Cyano-4-methyl-1-((2-methylnaphthalen-1-yl)methyl)-5-(2-(methylsulfonyl)acetyl)-2-oxo-2,3,4,5-tetrahydro-1H-benzo[b][1,4]diazepin-3-yl)-2-(ethylamino)propanamide hydrochloride] | 75 | > 54800
2 | – | – | CN[C@@H](C)C(=O)N[C@@H]1C(=O)N(Cc2nn(-c3ccccc3C#N)c3ccccc23)c2ccc(C#N)cc2N(C(=O)CS(C)(=O)=O)[C@H]1C [Example 53, (S)-N-((3S,4S)-7-cyano-1-((1-(2-cyanophenyl)-1H-indazol-3-yl)methyl)-4-methyl-5-(2-(methylsulfonyl)acetyl)-2-oxo-2,3,4,5-tetrahydro-1H-benzo[b][1,4]diazepin-3-yl)-2-(methylamino)propanamide 2,2,2-trifluoroacetate] | 33 | > 54800
3 | – | – | CN[C@@H](C)C(=O)N[C@@H]1C(=O)N(Cc2ccnc3ccccc23)c2ccccc2N(C(=O)CS(C)(=O)=O)[C@H]1C [Example 16, (S)-N-((2S,3S)-2-Methyl-1-(2-(methylsulfonyl)acetyl)-4-oxo-5-(quinolin-4-ylmethyl)-2,3,4,5-tetrahydro-1H-benzo[b][1,4]diazepin-3-yl)-2-(methylamino)propanamide hydrochloride] | 179 | > 54800
4 | – | – | CN[C@@H](C)C(=O)N[C@@H]1C(=O)N(Cc2cc(=O)oc3cc(Cl)ccc23)c2ccccc2N(C(=O)CS(C)(=O)=O)[C@H]1C [Example 40, (S)-N-((3S,4S)-1-((7-chloro-2-oxo-2H-chromen-4-yl)methyl)-4-methyl-5-(2-(methylsulfonyl)acetyl)-2-oxo-2,3,4,5-tetrahydro-1H-benzo[b][1,4]diazepin-3-yl)-2-(methylamino)propanamide 2,2,2-trifluoroacetate] | 354 | > 54800
5 | 12 | > 54800 | CN[C@@H](C)C(=O)N[C@@H]1C(=O)N(Cc2nn(-c3ccccc3C#N)c3ccccc23)c2ccccc2N(C(=O)c2ccc(C(C)=O)cc2)[C@H]1C [Example 3, (S)-N-{(2S,3S)-1-(4-acetyl-benzoyl)-5-[1-(2-cyano-phenyl)-1H-indazol-3-ylmethyl]-2-methyl-4-oxo-2,3,4,5-tetrahydro-1H-benzo[b][1,4]diazepin-3-yl}-2-methylamino-propionamide hydrochloride] | – | –
6 | – | – | CN[C@@H](C)C(=O)N[C@@H]1C(=O)N(Cc2noc3cc(Br)ccc23)c2ccccc2N(C(=O)CS(C)(=O)=O)[C@H]1C [Example 41, (S)-N-((3S,4S)-1-((6-bromobenzo[d]isoxazol-3-yl)methyl)-4-methyl-5-(2-(methylsulfonyl)acetyl)-2-oxo-2,3,4,5-tetrahydro-1H-benzo[b][1,4]diazepin-3-yl)-2-(methylamino)propanamide 2,2,2-trifluoroacetate] | 416 | > 54800
7 | – | – | CN[C@@H](C)C(=O)N[C@@H]1C(=O)N(Cc2c(C)cnc3ccccc23)c2ccccc2N(C(C)=O)[C@H]1C [Example 20, (S)-N-((2S,3S)-1-Acetyl-2-methyl-5-((3-methylquinolin-4-yl)methyl)-4-oxo-2,3,4,5-tetrahydro-1H-benzo[b][1,4]diazepin-3-yl)-2-(methylamino)propanamide dihydrochloride] | 55 | > 54800
8 | 44 | > 54800 | CN[C@@H](C)C(=O)N[C@@H]1C(=O)N(Cc2nn(-c3ccccc3C#N)c3ccccc23)c2ccccc2N(C(C)=O)[C@H]1C [Example 19, (S)-N-((2S,3S)-1-Acetyl-5-((1-(2-cyanophenyl)-1H-indazol-3-yl)methyl)-2-methyl-4-oxo-2,3,4,5-tetrahydro-1H-benzo[b][1,4]diazepin-3-yl)-2-(methylamino)propanamide] | – | –

— patent US9422331B2, “2-oxo-2,3,4,5-tetrahydro-1 H-benzo[B]diazepines and their use in the treatment of cancer” (Hoffmann-La Roche Inc., priority 2012, dated 2016)
